Test results: patent US20240024488A1, “COMPOUNDS AND USES THEREOF” (Foghorn Therapeutics Inc., priority 2020, published 2024)

Experiments:
[1] = biological target: T1, HiBit-BRG1 fusion protein (Homo sapiens, UniProt P51532); assay: HiBiT-BRG1 cell-based degradation assay (Nano-Glo HiBiT Lytic Detection, 24 h); settings: HeLa cell line expressing HiBit-BRG1 and LgBit; for Dmax: read-out: BRG1 HiBit Degradation Maximum (%); for DC50: read-out: BRMG1 HiBit Degradation IC50
T1 construct: expressed in transfected cells
Summary of the method: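 Luminescence from reconstituted NanoBiT luciferase after lytic detection served as read-out of remaining HiBit-BRG1 in stable HeLa cells, which also express LgBit. Cells were seeded at 5000 per well and incubated with compound for 24 h. DMSO and a 2 μM known degrader defined the control range.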

HiBit-BRM fusion protein = biological target: T2, HiBit-BRM fusion protein (Homo sapiens, UniProt P51531); assay: HiBiT-BRM cell-based degradation assay (Nano-Glo HiBiT Lytic Detection, 24 h); settings: HeLa cell line expressing HiBiT-BRM; for DC50: read-out: BRM HiBit Degradation IC50
T2 construct: expressed in transfected cells
Summary of the method: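 Stable HiBiT-BRM HeLa line; 24 h compound exposure, top final 30 μM, 3-fold, 10 pts in duplicate. Lytic HiBiT/LgBiT luminescence readout. % degradation vs DMSO (0%) and 2 μM known BRM/BRG1 degrader (100%).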

T2 sequence (P51531 whole entry, the tested form may be a part): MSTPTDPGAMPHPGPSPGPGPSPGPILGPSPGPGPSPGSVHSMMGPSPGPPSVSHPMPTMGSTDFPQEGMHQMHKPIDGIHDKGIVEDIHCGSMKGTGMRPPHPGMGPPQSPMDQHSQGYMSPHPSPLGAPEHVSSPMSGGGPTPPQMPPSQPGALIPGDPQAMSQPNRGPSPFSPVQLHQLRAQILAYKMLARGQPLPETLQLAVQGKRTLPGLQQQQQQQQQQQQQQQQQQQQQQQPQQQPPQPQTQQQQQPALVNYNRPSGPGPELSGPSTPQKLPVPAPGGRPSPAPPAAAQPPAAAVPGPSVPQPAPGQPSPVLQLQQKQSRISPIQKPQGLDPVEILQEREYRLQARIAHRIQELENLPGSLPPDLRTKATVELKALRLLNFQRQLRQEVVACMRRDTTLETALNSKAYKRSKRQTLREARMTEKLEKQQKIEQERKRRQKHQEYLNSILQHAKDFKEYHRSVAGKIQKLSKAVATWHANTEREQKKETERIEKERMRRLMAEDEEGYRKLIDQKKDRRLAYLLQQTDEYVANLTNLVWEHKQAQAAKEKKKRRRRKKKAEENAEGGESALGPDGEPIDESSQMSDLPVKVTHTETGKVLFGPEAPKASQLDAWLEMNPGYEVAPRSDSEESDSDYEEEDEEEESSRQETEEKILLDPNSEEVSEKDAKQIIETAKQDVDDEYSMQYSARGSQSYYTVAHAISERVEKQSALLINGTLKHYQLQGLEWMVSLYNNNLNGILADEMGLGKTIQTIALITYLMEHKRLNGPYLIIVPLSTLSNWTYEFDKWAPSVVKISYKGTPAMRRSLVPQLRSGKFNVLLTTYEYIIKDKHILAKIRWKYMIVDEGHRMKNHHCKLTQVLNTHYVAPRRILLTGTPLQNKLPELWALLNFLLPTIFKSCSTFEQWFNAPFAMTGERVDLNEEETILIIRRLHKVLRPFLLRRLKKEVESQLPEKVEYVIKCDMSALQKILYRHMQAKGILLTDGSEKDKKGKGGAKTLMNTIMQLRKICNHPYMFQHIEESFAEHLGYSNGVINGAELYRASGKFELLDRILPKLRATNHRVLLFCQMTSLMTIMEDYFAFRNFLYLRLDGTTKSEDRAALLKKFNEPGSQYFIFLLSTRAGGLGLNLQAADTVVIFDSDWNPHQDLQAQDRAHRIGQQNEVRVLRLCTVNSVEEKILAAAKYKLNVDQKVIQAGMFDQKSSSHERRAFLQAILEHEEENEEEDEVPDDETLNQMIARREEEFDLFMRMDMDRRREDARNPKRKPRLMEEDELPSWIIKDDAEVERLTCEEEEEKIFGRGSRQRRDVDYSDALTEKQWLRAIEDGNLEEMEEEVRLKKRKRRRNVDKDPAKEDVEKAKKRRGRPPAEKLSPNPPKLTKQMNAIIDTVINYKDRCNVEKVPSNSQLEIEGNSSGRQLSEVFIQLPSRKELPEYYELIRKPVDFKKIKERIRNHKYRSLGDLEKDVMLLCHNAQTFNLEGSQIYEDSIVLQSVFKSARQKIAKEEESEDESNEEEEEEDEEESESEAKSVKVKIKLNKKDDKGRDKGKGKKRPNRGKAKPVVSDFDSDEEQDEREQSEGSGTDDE
T1 sequence (P51532 whole entry, the tested form may be a part): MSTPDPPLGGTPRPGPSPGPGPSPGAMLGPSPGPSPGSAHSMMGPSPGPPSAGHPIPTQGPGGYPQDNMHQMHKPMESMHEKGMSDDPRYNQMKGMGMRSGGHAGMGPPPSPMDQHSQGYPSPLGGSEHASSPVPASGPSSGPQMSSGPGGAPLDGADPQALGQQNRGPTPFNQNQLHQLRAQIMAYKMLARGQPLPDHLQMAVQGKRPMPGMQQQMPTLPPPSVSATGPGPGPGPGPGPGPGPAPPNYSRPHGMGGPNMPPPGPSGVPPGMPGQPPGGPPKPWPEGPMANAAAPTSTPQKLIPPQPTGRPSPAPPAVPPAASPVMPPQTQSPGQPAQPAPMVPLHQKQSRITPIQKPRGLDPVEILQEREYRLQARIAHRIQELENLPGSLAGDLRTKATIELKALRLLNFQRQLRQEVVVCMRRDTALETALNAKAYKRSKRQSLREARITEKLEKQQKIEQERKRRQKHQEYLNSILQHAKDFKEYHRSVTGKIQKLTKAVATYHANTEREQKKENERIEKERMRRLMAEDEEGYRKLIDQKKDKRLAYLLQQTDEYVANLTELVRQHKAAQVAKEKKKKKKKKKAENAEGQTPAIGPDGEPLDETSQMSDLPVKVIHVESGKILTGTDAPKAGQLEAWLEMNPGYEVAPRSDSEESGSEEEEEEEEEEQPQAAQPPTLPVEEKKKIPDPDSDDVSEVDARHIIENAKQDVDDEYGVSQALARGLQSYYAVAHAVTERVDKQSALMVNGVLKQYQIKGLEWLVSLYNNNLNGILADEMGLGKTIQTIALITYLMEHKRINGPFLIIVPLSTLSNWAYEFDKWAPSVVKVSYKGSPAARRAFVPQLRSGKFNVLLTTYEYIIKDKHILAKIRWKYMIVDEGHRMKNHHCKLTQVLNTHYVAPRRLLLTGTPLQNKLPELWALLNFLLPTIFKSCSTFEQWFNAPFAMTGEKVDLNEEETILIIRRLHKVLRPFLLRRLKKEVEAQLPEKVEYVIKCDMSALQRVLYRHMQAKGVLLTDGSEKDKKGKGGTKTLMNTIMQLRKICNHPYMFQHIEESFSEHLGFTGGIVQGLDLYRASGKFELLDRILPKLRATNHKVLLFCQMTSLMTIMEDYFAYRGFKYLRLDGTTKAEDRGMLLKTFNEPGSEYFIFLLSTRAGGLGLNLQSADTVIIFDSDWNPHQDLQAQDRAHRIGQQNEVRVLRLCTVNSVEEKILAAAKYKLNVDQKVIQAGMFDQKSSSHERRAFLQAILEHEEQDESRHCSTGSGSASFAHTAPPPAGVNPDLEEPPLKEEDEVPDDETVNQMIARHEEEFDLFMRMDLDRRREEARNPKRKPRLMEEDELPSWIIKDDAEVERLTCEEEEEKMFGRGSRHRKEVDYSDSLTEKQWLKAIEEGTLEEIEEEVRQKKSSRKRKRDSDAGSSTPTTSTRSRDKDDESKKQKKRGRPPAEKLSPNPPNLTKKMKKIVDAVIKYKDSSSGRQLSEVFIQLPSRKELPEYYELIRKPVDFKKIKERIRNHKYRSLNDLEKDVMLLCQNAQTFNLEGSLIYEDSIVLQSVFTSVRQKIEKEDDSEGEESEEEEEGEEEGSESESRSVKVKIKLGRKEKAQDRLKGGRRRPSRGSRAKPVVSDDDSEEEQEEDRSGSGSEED

Row | SMILES | Dmax [1] | DC50 [1] | DC50 (HiBit-BRM fusion protein) | BRM HiBit Degradation Maximum (%) (HiBit-BRM fusion protein)
1 | Cc1ncsc1-c1ccc([C@H](C)NC(=O)[C@@H]2C[C@@H](O)CN2C(=O)[C@@H](c2cc(OCCN3CCN(c4cc5cc(-c6ccccc6O)nnc5[nH]4)CC3)no2)C(C)C)cc1 (racemic) [Compound 235, (2S,4R)-4-hydroxy-1-((R)-2-(3-(2-(4-(3-(2-hydroxyphenyl)-7H-pyrrolo[2,3-c]pyridazin-6-yl)piperazin-1-yl)ethoxy)isoxazol-5-yl)-3-methylbutanoyl)-N-((S)-1-(4-(4-methylthiazol-5-yl)phenyl)ethyl)pyrrolidine-2-carboxamide] | > 75% | > 0.01 µM | > 0.01 µM | A (“A” indicates maximum degradation ≥ 75%)
2 | Cc1ncsc1-c1ccc([C@H](C)NC(=O)[C@@H]2C[C@@H](O)CN2C(=O)C(c2cc(N3CCC(C(=O)N4CC(c5c[nH]c6nnc(-c7ccccc7O)cc56)C4)CC3)no2)C(C)C)cc1 (mixture of isomers) [Compound 236, (2S,4R)-4-hydroxy-1-((R)-2-(3-(4-(3-(3-(2-hydroxyphenyl)-7H-pyrrolo[2,3-c]pyridazin-5-yl)azetidine-1-carbonyl)piperidin-1-yl)isoxazol-5-yl)-3-methylbutanoyl)-N-((S)-1-(4-(4-methylthiazol-5-yl)phenyl)ethyl)pyrrolidine-2-carboxamide] | < 50% | – | – | C (“C” indicates maximum degradation < 50%)
3 | Cc1ncsc1-c1ccc([C@H](C)NC(=O)[C@@H]2C[C@@H](O)CN2C(=O)[C@@H](c2cc(OCCN3CC(c4[nH]c5nnc(-c6ccccc6O)cc5c4Cl)C3)no2)C(C)C)cc1 (racemic) [Compound 238, (2S,4R)-1-[(2R)-2-[3-(2-{3-[5-chloro-3-(2-hydroxyphenyl)-7H-pyrrolo[2,3-c]pyridazin-6-yl]azetidin-1-yl}ethoxy)-1,2-oxazol-5-yl]-3-methylbutanoyl]-4-hydroxy-N-[(1S)-1-[4-(4-methyl-1,3-thiazol-5-yl)phenyl]ethyl]pyrrolidine-2-carboxamide] | < 50% | – | > 0.01 µM | A (“A” indicates maximum degradation ≥ 75%)
4 | Cc1ncsc1-c1ccc([C@H](C)NC(=O)[C@@H]2C[C@@H](O)CN2C(=O)[C@@H](c2cc(OCCNC(=O)c3cc4cc(-c5ccccc5O)nnc4[nH]3)no2)C(C)C)cc1 (racemic) [Compound 239, N-(2-((5-((R)-1-((2S,4R)-4-hydroxy-2-(((S)-1-(4-(4-methylthiazol-5-yl)phenyl)ethyl)carbamoyl)pyrrolidin-1-yl)-3-methyl-1-oxobutan-2-yl)isoxazol-3-yl)oxy)ethyl)-3-(2-hydroxyphenyl)-7H-pyrrolo[2,3-c]pyridazine-6-carboxamide] | < 50% | – | > 0.1 µM | A (“A” indicates maximum degradation ≥ 75%)
5 | Cc1ncsc1-c1ccc([C@H](C)NC(=O)[C@@H]2C[C@@H](O)CN2C(=O)[C@@H](c2cc(OCCNC(=O)C(=O)N3CC(c4cc5cc(-c6ccccc6O)nnc5[nH]4)C3)no2)C(C)C)cc1 (racemic) [Compound 240, (2S,4R)-4-hydroxy-1-((R)-2-(3-(2-(2-(3-(3-(2-hydroxyphenyl)-7H-pyrrolo[2,3-c]pyridazin-6-yl)azetidin-1-yl)-2-oxoacetamido)ethoxy)isoxazol-5-yl)-3-methylbutanoyl)-N-((S)-1-(4-(4-methylthiazol-5-yl)phenyl)ethyl)pyrrolidine-2-carboxamide] | > 50% | > 1 µM | > 0.1 µM | A (“A” indicates maximum degradation ≥ 75%)
6 | Cc1ncsc1-c1ccc([C@H](C)NC(=O)[C@@H]2C[C@@H](O)CN2C(=O)[C@@H](c2cc(OCCN(C)C(=O)c3cc4cc(-c5ccccc5O)nnc4[nH]3)no2)C(C)C)cc1 (racemic) [Compound 242, N-(2-((5-((R)-1-((2S,4R)-4-hydroxy-2-(((S)-1-(4-(4-methylthiazol-5-yl)phenyl)ethyl)carbamoyl)pyrrolidin-1-yl)-3-methyl-1-oxobutan-2-yl)isoxazol-3-yl)oxy)ethyl)-3-(2-hydroxyphenyl)-N-methyl-7H-pyrrolo[2,3-c]pyridazine-6-carboxamide] | < 50% | – | > 0.1 µM | B (“B” indicates maximum degradation ≥ 50%)
7 | Cc1ncsc1-c1ccc([C@H](C)NC(=O)[C@@H]2C[C@@H](O)CN2C(=O)[C@@H](c2cc(OCCN3[C@@H]4CC[C@H]3CN(c3cc5cc(-c6ccccc6O)nnc5[nH]3)C4)no2)C(C)C)cc1 (racemic) [Compound 245, (2S,4R)-4-hydroxy-1-((2R)-2-(3-(2-(3-(3-(2-hydroxyphenyl)-7H-pyrrolo[2,3-c]pyridazin-6-yl)-3,8-diazabicyclo[3.2.1]octan-8-yl)ethoxy)isoxazol-5-yl)-3-methylbutanoyl)-N-((S)-1-(4-(4-methylthiazol-5-yl)phenyl)ethyl)pyrrolidine-2-carboxamide] | > 75% | > 0.1 µM | > 0.01 µM | A (“A” indicates maximum degradation ≥ 75%)

Second part, led by results:

Row | Dmax [1] | DC50 [1] | DC50 (HiBit-BRM fusion protein) | SMILES | BRM HiBit Degradation Maximum (%) (HiBit-BRM fusion protein)
8 | > 50% | > 1 µM | > 0.1 µM | Cc1ncsc1-c1ccc([C@H](C)NC(=O)[C@@H]2C[C@@H](O)CN2C(=O)[C@@H](c2cc(OCCN3CC(CCCc4cc5cc(-c6ccccc6O)nnc5[nH]4)C3)no2)C(C)C)cc1 (racemic) [Compound 243, (2S,4R)-4-hydroxy-1-[(2R)-2-{3-[2-(3-{3-[3-(2-hydroxyphenyl)-7H-pyrrolo[2,3-c]pyridazin-6-yl]propyl}azetidin-1-yl)ethoxy]-1,2-oxazol-5-yl}-3-methylbutanoyl]-N-[(1S)-1-[4-(4-methyl-1,3-thiazol-5-yl)phenyl]ethyl]pyrrolidine-2-carboxamide] | A (“A” indicates maximum degradation ≥ 75%)
9 | > 50% | – | > 0.1 µM | Cc1ncsc1-c1ccc([C@H](C)NC(=O)[C@@H]2C[C@@H](O)CN2C(=O)[C@@H](c2cc(OCCN3CC(CCc4cc5cc(-c6ccccc6O)nnc5[nH]4)C3)no2)C(C)C)cc1 (racemic) [Compound 244, (2S,4R)-4-hydroxy-1-((R)-2-(3-(2-(3-(2-(3-(2-hydroxyphenyl)-7H-pyrrolo[2,3-c]pyridazin-6-yl)ethyl)azetidin-1-yl)ethoxy)isoxazol-5-yl)-3-methylbutanoyl)-N-((S)-1-(4-(4-methylthiazol-5-yl)phenyl)ethyl)pyrrolidine-2-carboxamide] | A (“A” indicates maximum degradation ≥ 75%)
10 | > 75% | > 0.1 µM | > 0.01 µM | Cc1ncsc1-c1ccc([C@H](C)NC(=O)[C@@H]2C[C@@H](O)CN2C(=O)[C@@H](c2cc(OCCN(C)CC34CC(c5cc6cc(-c7ccccc7O)nnc6[nH]5)(C3)C4)no2)C(C)C)cc1 (racemic) [Compound 246, (2S,4R)-4-hydroxy-1-((R)-2-(3-(2-(((3-(3-(2-hydroxyphenyl)-7H-pyrrolo[2,3-c]pyridazin-6-yl)bicyclo[1.1.1]pentan-1-yl)methyl)(methyl)amino)ethoxy)isoxazol-5-yl)-3-methylbutanoyl)-N-((S)-1-(4-(4-methylthiazol-5-yl)phenyl)ethyl)pyrrolidine-2-carboxamide] | A (“A” indicates maximum degradation ≥ 75%)
11 | > 50% | > 1 µM | > 0.01 µM | Cc1ncsc1-c1ccc([C@H](C)NC(=O)[C@@H]2C[C@@H](O)CN2C(=O)[C@@H](c2cc(N3CCC(CN4CC(c5cc6cc(-c7ccccc7O)nnc6[nH]5)C4)CC3)no2)C(C)C)cc1 (racemic) [Compound 247, (2S,4R)-4-hydroxy-1-((R)-2-(3-(4-((3-(3-(2-hydroxyphenyl)-7H-pyrrolo[2,3-c]pyridazin-6-yl)azetidin-1-yl)methyl)piperidin-1-yl)isoxazol-5-yl)-3-methylbutanoyl)-N-((S)-1-(4-(4-methylthiazol-5-yl)phenyl)ethyl)pyrrolidine-2-carboxamide] | A (“A” indicates maximum degradation ≥ 75%)
12 | > 50% | > 0.1 µM | > 0.01 µM | Cc1ncsc1-c1ccc([C@H](C)NC(=O)[C@@H]2C[C@@H](O)CN2C(=O)[C@@H](c2cc(N3CCC(N4CC(c5cc6cc(-c7ccccc7O)nnc6[nH]5)C4)CC3)no2)C(C)C)cc1 (racemic) [Compound 248, (2S,4R)-4-hydroxy-1-((R)-2-(3-(4-(3-(3-(2-hydroxyphenyl)-7H-pyrrolo[2,3-c]pyridazin-6-yl)azetidin-1-yl)piperidin-1-yl)isoxazol-5-yl)-3-methylbutanoyl)-N-((S)-1-(4-(4-methylthiazol-5-yl)phenyl)ethyl)pyrrolidine-2-carboxamide] | A (“A” indicates maximum degradation ≥ 75%)
13 | < 50% | – | > 0.1 µM | Cc1ncsc1-c1ccc([C@H](C)NC(=O)[C@@H]2C[C@@H](O)CN2C(=O)[C@@H](c2cc(OCCNC(=O)CN3CC(c4cc5cc(-c6ccccc6O)nnc5[nH]4)C3)no2)C(C)C)cc1 (racemic) [Compound 249, (2S,4R)-4-hydroxy-1-((R)-2-(3-(2-(2-(3-(3-(2-hydroxyphenyl)-7H-pyrrolo[2,3-c]pyridazin-6-yl)azetidin-1-yl)acetamido)ethoxy)isoxazol-5-yl)-3-methylbutanoyl)-N-((S)-1-(4-(4-methylthiazol-5-yl)phenyl)ethyl)pyrrolidine-2-carboxamide] | A (“A” indicates maximum degradation ≥ 75%)
